From PubChem BioAssay AID328 (DTP/NCI, 2004)
Values joined by “and” are separate entries in the source; they are usually repeats but may differ in a detail not shown here. Equal values may be shown once. Inconclusive results and toxic doses are left out.

Test system: BDF1 mice, P388 leukemia ip, median survival T/C
Assay: NCI In Vivo Anticancer Drug Screen. Data for tumor model P388 Leukemia (intraperitoneal) in B6D2F1 (BDF1) mice
Settings: endpoint: median survival time, higher = longer survival
Summary of the method: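 Survival ratio, drug arm over vehicle arm, in mice with a transplanted tumour.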

[1] = dose: 12.5 mg/kg/injection, schedule: Q01DX009 (ip), vehicle: Klucel (hydroxypropylcellulose) (HPC)
[2] = dose: 6.25 mg/kg/injection, schedule: Q04DX003 (ip), vehicle: saline
[3] = dose: 12.5 mg/kg/injection, schedule: Q04DX003 (ip), vehicle: saline
[4] = dose: 25.0 mg/kg/injection, schedule: Q04DX003 (ip), vehicle: saline
[5] = dose: 25.0 mg/kg/injection, schedule: Q01DX009 (ip), vehicle: saline
[6] = dose: 25.0 mg/kg/injection, schedule: Q01DX009 (ip), vehicle: saline with Tween-80
[7] = dose: 25.0 mg/kg/injection, schedule: Q04DX003 (ip), vehicle: saline with Tween-80
[8] = dose: 50.0 mg/kg/injection, schedule: Q01DX009 (ip), vehicle: saline with Tween-80
[9] = dose: 100.0 mg/kg/injection, schedule: Q04DX003 (ip), vehicle: saline with Tween-80
[10] = dose: 6.25 mg/kg/injection, schedule: Q01DX009 (ip), vehicle: saline with Tween-80
[11] = dose: 12.5 mg/kg/injection, schedule: Q01DX009 (ip), vehicle: saline with Tween-80
[12] = dose: 100.0 mg/kg/injection, schedule: Q01DX009 (ip), vehicle: saline with Tween-80
[13] = dose: 200.0 mg/kg/injection, schedule: Q01DX009 (ip), vehicle: saline with Tween-80

## CCCCSC1=CC(=O)c2ccccc2C1=O
dose: 3.12 mg/kg/injection, schedule: Q01DX009 (ip), vehicle: Klucel (hydroxypropylcellulose) (HPC)
  T/C: 92 % of control and 104 % of control
dose: 6.25 mg/kg/injection, schedule: Q01DX009 (ip), vehicle: Klucel (hydroxypropylcellulose) (HPC)
  T/C: 100 % of control and 116 % of control
[1]
  T/C: 100 % of control and 107 % of control and 108 % of control

## C=CC[n+]1cccc2ccccc21
[2]
  T/C: 100 % of control
[1]
  T/C: 86 % of control
[3]
  T/C: 95 % of control
dose: 25.0 mg/kg/injection, schedule: Q01DX009 (ip), vehicle: Klucel (hydroxypropylcellulose) (HPC)
  T/C: 90 % of control
[4]
  T/C: 109 % of control

## CCN(CC)CCn1c(=O)c2ccccc2c2ccccc21
dose: 12.5 mg/kg/injection, schedule: Q01DX009 (ip), vehicle: saline
  T/C: 120 % of control
[5]
  T/C: 105 % of control
dose: 50.0 mg/kg/injection, schedule: Q01DX009 (ip), vehicle: saline
  T/C: 120 % of control

## CC(=O)NC(CCC(=O)C=[N+]=N)C(=O)O (configuration not stated)
dose: 0.05 mg/kg/injection, schedule: Q01DX010 (ip), vehicle: other
  T/C: 115 % of control
dose: 0.1 mg/kg/injection, schedule: Q01DX010 (ip), vehicle: other
  T/C: 110 % of control
dose: 0.2 mg/kg/injection, schedule: Q01DX010 (ip), vehicle: other
  T/C: 120 % of control
dose: 0.6 mg/kg/injection, schedule: Q01DX010 (ip), vehicle: other
  T/C: 154 % of control
dose: 0.8 mg/kg/injection, schedule: Q01DX010 (ip), vehicle: other
  T/C: 168 % of control
dose: 1.0 mg/kg/injection, schedule: Q01DX010 (ip), vehicle: other
  T/C: 100 % of control

## Nc1nc(C=O)c(Cc2ccc(Br)cc2)c(=O)[nH]1
[6]
  T/C: 123 % of control
[7]
  T/C: 104 % of control
[8]
  T/C: 123 % of control
dose: 50.0 mg/kg/injection, schedule: Q04DX003 (ip), vehicle: saline with Tween-80
  T/C: 104 % of control
dose: 66.0 mg/kg/injection, schedule: Q01DX009 (ip), vehicle: saline with Tween-80
  T/C: 110 % of control
[9]
  T/C: 113 % of control

## CC(=O)O/N=C(/C)c1ccccc1
dose: 25.0 mg/kg/injection, schedule: Q04DX003 (ip), vehicle: saline sonified
  T/C: 100 % of control
dose: 50.0 mg/kg/injection, schedule: Q04DX003 (ip), vehicle: saline sonified
  T/C: 100 % of control
dose: 100.0 mg/kg/injection, schedule: Q04DX003 (ip), vehicle: saline sonified
  T/C: 100 % of control

## CCCCCCCCCCCCCC(C)NCc1ccccc1 (configuration not stated)
dose: 3.13 mg/kg/injection, schedule: Q01DX009 (ip), vehicle: saline with Tween-80
  T/C: 95 % of control
[10]
  T/C: 100 % of control
[11]
  T/C: 100 % of control

## NC(Cc1ccc(O)cc1)C(=O)N/N=C/c1ccc(N(CCCl)CCCl)cc1 (configuration not stated)
dose: 18.0 mg/kg/injection, schedule: Q04DX003 (ip), vehicle: Klucel (hydroxypropylcellulose) (HPC)
  T/C: 108 % of control
dose: 26.0 mg/kg/injection, schedule: Q04DX003 (ip), vehicle: Klucel (hydroxypropylcellulose) (HPC)
  T/C: 116 % of control
dose: 60.0 mg/kg/injection, schedule: Q04DX003 (ip), vehicle: Klucel (hydroxypropylcellulose) (HPC)
  T/C: 165 % of control
dose: 90.0 mg/kg/injection, schedule: Q04DX003 (ip), vehicle: Klucel (hydroxypropylcellulose) (HPC)
  T/C: 169 % of control
dose: 100.0 mg/kg/injection, schedule: Q04DX003 (ip), vehicle: Klucel (hydroxypropylcellulose) (HPC)
  T/C: 165 % of control
dose: 133.0 mg/kg/injection, schedule: Q04DX003 (ip), vehicle: Klucel (hydroxypropylcellulose) (HPC)
  T/C: 170 % of control
dose: 200.0 mg/kg/injection, schedule: Q04DX003 (ip), vehicle: Klucel (hydroxypropylcellulose) (HPC)
  T/C: 192 % of control and 204 % of control
dose: 300.0 mg/kg/injection, schedule: Q04DX003 (ip), vehicle: Klucel (hydroxypropylcellulose) (HPC)
  T/C: 166 % of control

## N#CN=C([S-])[S-].N#CN=C([S-])[S-].[Cu]
dose: 0.39 mg/kg/injection, schedule: Q01DX001 (ip), vehicle: saline
  T/C: 104 % of control
dose: 0.78 mg/kg/injection, schedule: Q01DX001 (ip), vehicle: saline
  T/C: 100 % of control
dose: 1.56 mg/kg/injection, schedule: Q01DX001 (ip), vehicle: saline
  T/C: 100 % of control
dose: 6.25 mg/kg/injection, schedule: Q01DX009 (ip), vehicle: saline
  T/C: 100 % of control
[2]
  T/C: 86 % of control
[3]
  T/C: 100 % of control

## COc1cccc(OC)c1C(c1c(OC)cccc1OC)c1c(OC)cccc1OC
[10]
  T/C: 115 % of control
[11]
  T/C: 100 % of control
[6]
  T/C: 109 % of control
[7]
  T/C: 104 % of control
[12]
  T/C: 120 % of control
[9]
  T/C: 116 % of control

## NC(=O)c1cc([N+](=O)[O-])c(Cl)c([N+](=O)[O-])c1
dose: 2.5 mg/kg/injection, schedule: Q01DX009 (ip), vehicle: Klucel (hydroxypropylcellulose) (HPC)
  T/C: 109 % of control
dose: 5.0 mg/kg/injection, schedule: Q01DX009 (ip), vehicle: Klucel (hydroxypropylcellulose) (HPC)
  T/C: 109 % of control
dose: 10.0 mg/kg/injection, schedule: Q01DX009 (ip), vehicle: Klucel (hydroxypropylcellulose) (HPC)
  T/C: 104 % of control and 105 % of control
dose: 10.0 mg/kg/injection, schedule: Q04DX003 (ip), vehicle: Klucel (hydroxypropylcellulose) (HPC)
  T/C: 100 % of control
dose: 40.0 mg/kg/injection, schedule: Q04DX003 (ip), vehicle: Klucel (hydroxypropylcellulose) (HPC)
  T/C: 90 % of control

## CS(=O)CC(O)(c1ccccc1)c1cccnc1 (configuration not stated)
[8]
  T/C: 103 % of control
[12]
  T/C: 92 % of control
[13]
  T/C: 107 % of control

## COc1ccc(CN2CCN(Cc3ccc(OC)c(OC)c3)C2c2ccc(OC)c(OC)c2)cc1OC
[12]
  T/C: 109 % of control
[9]
  T/C: 105 % of control
[13]
  T/C: 100 % of control
dose: 200.0 mg/kg/injection, schedule: Q04DX003 (ip), vehicle: saline with Tween-80
  T/C: 105 % of control
dose: 400.0 mg/kg/injection, schedule: Q01DX009 (ip), vehicle: saline with Tween-80
  T/C: 100 % of control
dose: 400.0 mg/kg/injection, schedule: Q04DX003 (ip), vehicle: saline with Tween-80
  T/C: 95 % of control

## CN1CCC2=C(C1)C(c1ccccc1)c1ccccc12 (configuration not stated)
[5]
  T/C: 106 % of control

## COC(=O)c1c2ccccc2cn1Cc1ccccc1
[6]
  T/C: 89 % of control
[8]
  T/C: 90 % of control and 93 % of control
[12]
  T/C: 100 % of control
[13]
  T/C: 100 % of control

## CCn1cnc2c(SC)ncnc21
dose: 18.75 mg/kg/injection, schedule: Q01DX009 (ip), vehicle: saline
  T/C: 109 % of control
[4]
  T/C: 86 % of control
dose: 37.5 mg/kg/injection, schedule: Q01DX009 (ip), vehicle: saline
  T/C: 100 % of control
dose: 50.0 mg/kg/injection, schedule: Q04DX003 (ip), vehicle: saline
  T/C: 104 % of control
dose: 75.0 mg/kg/injection, schedule: Q01DX009 (ip), vehicle: saline
  T/C: 104 % of control
dose: 75.0 mg/kg/injection, schedule: Q04DX003 (ip), vehicle: Klucel (hydroxypropylcellulose) (HPC)
  T/C: 95 % of control

## CN1C(=O)C(C2(C3C(=O)N(C)C(=O)N(C)C3=O)C(=O)N(C)C(=O)N(C)C2=O)C(=O)N(C)C1=O
dose: 100.0 mg/kg/injection, schedule: Q01DX001 (ip), vehicle: saline with Tween-80
  T/C: 108 % of control
dose: 200.0 mg/kg/injection, schedule: Q01DX001 (ip), vehicle: saline with Tween-80
  T/C: 104 % of control
dose: 400.0 mg/kg/injection, schedule: Q01DX001 (ip), vehicle: saline with Tween-80
  T/C: 102 % of control
